From article PMC7414198, “Genomic and enzymatic evidence of acetogenesis by anaerobic methanotrophic archaea” (Nature Communications, 2020)
Where two headings read alike, the source gives them in different places.

Key:
[1] = system: T1, ADP-forming acetate-CoA ligase (Acd) from ANME-2a; assay: DTNB assay of HSCoA release, […] nm; format: biochemical, ANME-2 cluster archaeon (ANME-2a, uncultured); conditions: acetate-forming direction; 2 mM ADP, 40 mM K3PO4, 1 mM MgCl2, 20 mM Tris-HCl pH 8.0
T1 construct: alpha (55 kDa) and beta (25 kDa) subunits, codon-optimised synthetic genes in pET-28a (NdeI/BamHI and BamHI/SalI, RBS before beta), E. coli BL21(DE3)-groEL, Ni-NTA purified

[2] = system: T2, acetyl-CoA synthetase (Acs) from ANME-2a; assay: DTNB assay of HSCoA release, […] nm; format: biochemical, ANME-2 cluster archaeon (ANME-2a, uncultured); conditions: acetate-forming direction; 2 mM AMP, 2 mM PPi, 1.25 M KCl, 1 mM MgCl2, 20 mM Tris-HCl pH 8.0
T2 construct: codon-optimised synthetic gene in pET-28a (NdeI/BamHI), E. coli Rosetta(DE3), Ni-NTA purified, 70 kDa

[3] = system: acetyl-CoA synthetase (Acs) from ANME-2a; conditions: acetyl-CoA-forming direction; concentrations of ATP and CoA not given

| Compound | Km [1] [µM] | Km [2] [µM] | Km [3] [µM] |
| --- | --- | --- | --- |
| CC(=O)SCCNC(=O)CCNC(=O)[C@H](O)C(C)(C)COP(=O)(O)OP(=O)(O)OC[C@H]1O[C@@H](n2cnc3c(N)ncnc32)[C@H](O)[C@@H]1OP(=O)(O)O [acetyl-CoA] | 31.3 | 8.5 |  |
| CC(=O)O [acetate] |  |  | 490 |
